Test results from US11173144B2, “Adrenergic receptor modulating compounds and methods of using the same” (The Board of Trustees of the Leland Stanford Junior …, priority 2016, dated 2021).
Where two headings read alike, the source gives them in different places.

Tests used:
ADRB1 = ADRB1 (Homo sapiens (Human), UniProt P08588); experiment: β-arrestin assay (PathHunter enzyme fragment complementation, CHO-K1-ADRB1 cells); assay type: cell-based; details: Table 4
Description: Pharmacological activity of compounds in the β-arrestin pathway mediated by ADRB1 are evaluated using an enzyme fragment complementation method with a β-galactosidase functional reporter. An engineered CHO-K1-ADRB1 PathHunter cell line (DiscoveRx) is used in the assay. In this cell line, enzyme acceptor (β-galactosidase fragment) is fused to β-arrestin and enzyme donor (β-galactosidase fragment) is fused to the ADRB1. Thus, activation of the ADRB1 stimulates binding of β-arrestin to the ProLink-tagged ADRB1 and forces complementation of the two enzyme fragments, resulting in the formation of an active β-galactosidase enzyme. Briefly, CHO-K1-ADRB1 PathHunter cell lines are plated in a total volume of 20 μL cell plating reagent (DiscoveRx, 93-0563R0A) at a density of 2,500 cells/well into 384 well microplates and incubated overnight at 37° C. in 5% CO2. […] Chemiluminescent signal is then read with a PerkinElmer Envision™ instrument. The results are expressed as a percent of the maximum efficacy achieved with isoproterenol.
Effects of compounds on β-arrestin signaling pathways are determined using CHO cells stably expressing human β1-adrenergic receptors or human β2-adrenergic receptors with PathHunter® β-Arrestin GPCR assay system (DiscoveRx). In this system, adrenergic receptor is fused in frame with the small enzyme fragment ProLink™ and co-expressed in cell stably expressing at fusion protein of β-arrestin and the larger, N-terminal deletion mutant of β-galactosidase enzyme. Activation of the adrenergic receptor stimulates binding of β-arrestin to the ProLink-tagged receptor and forces complementation of the two enzyme fragments, resulting in the formation of an active β-gal enzyme. This interaction leads to an increase in enzyme activity that can be measured using chemiluminescent detection reagents. The effects of compounds on β-arrestin signaling pathways are determined 90 minutes after incubating the cells with the test compounds.

[1] = tested on: panel of CNS relevant targets, including G-protein coupled receptor and transporters; experiment: Screen against a panel of CNS relevant targets (off-target affinity); assay type: binding
Text: (§1) From a drug development perspective, characterizing the off-target effects of lead compounds is an important issue, as interactions with off-target molecules may lead to undesirable side effects. Thus we screened xamoterol (S) and the key compound compound 43 against a panel of CNS relevant targets, including G-protein coupled receptor and transporters. […].

5-HT1A = 5-HT1A (Homo sapiens (Human), UniProt P08908); experiment: CNS target panel screen: 5-HT1A; assay type: binding
Text: as §1

α1A adrenergic receptor = α1A adrenergic receptor (Homo sapiens (Human), UniProt P35348); experiment: CNS target panel screen: α1A adrenergic receptor; assay type: binding
Text: as §1

α1D adrenergic receptor = α1D adrenergic receptor (Homo sapiens (Human), UniProt P25100); experiment: CNS target panel screen: α1D adrenergic receptor; assay type: binding
Text: as §1

D3 dopaminergic receptor = D3 dopaminergic receptor (Homo sapiens (Human), UniProt P35462); experiment: CNS target panel screen: D3 dopaminergic receptor; assay type: binding
Text: as §1

[2] = Pharmacokinetic study, 4 hour time course; assay type: in vivo, Sprague-Dawley rats; details: rat; for AUC(0-inf) / Cmax / bioavailability: Sprague-Dawley, 10 mg/kg; for AUC(0-inf): AUCinf
Description: Two cohorts of Sprague-Dawley rats are used in two independent studies. All animals are fasted overnight before the experiment with free access to water. In study 1, a total of 18 rats are used for a 4 h time course pharmacokinetic (PK) study. […] On the day of the experiment, xamoterol is freshly prepared in saline. […] Four hours post-dose, rats are deeply anesthetized with isoflurane and blood samples are collected by cardiac puncture. In study 2, a total of 18 rats are used for a 20 min post-dose collection study. […] At 20 min post-dose, rats are deeply anesthetized with isoflurane and blood samples are collected by cardiac puncture. Brains are collected after perfusion with phosphate buffered saline. […] LC separation is carried out on a Phenomenex Synergi Polar-RP column (2.5 μm, 2 mm×50 mm) with a flow rate of 0.25 ml/min at room temperature. Mobile phase A consisted of 10 mM ammonium acetate and 0.1% formic acid in LCMS grade water. Mobile phase B consisted of 10 mM ammonium acetate and 0.1% formic acid in LCMS grade acetonitrile: water 90:10% (v/v). […] Five μl of the extracted samples is injected. The mass spectrometer is operated in the positive mode with multiple-reaction monitoring (MRM) with the transition m/z 334.1→210.1 and 334.1→100.2.

[3] = tested on: heart rate and blood pressure; experiment: Cardiovascular studies (heart rate and blood pressure) in anesthetized rats; assay type: in vivo, Sprague-Dawley rats; details: 3 mg/kg subcutaneous
Description: Adult rats are anesthetizes using isoflurane and are accommodated on a heated platform warmed to 36° C. A jugular catheter (for IV administration of the drug) and an intra-arterial catheter (tail artery, for blood pressure measurements) are implanted under 2.5% isoflurane. To avoid clotting, all animals received a single dose of heparin after intravenous cannulation. Intra-arterial catheter was then connected to a pressure transducer coupled to a computerized data acquisition system (PowerLab) and its application software (LabChart 8)[AD Instruments (Australia)]. Mean blood pressure and the hear rate was analyzed and plotted using prism software.
Briefly, rats are anesthetized with 3-4% isoflurance and 1 cm longitudinal incision is made on the ventral aspect of the tail exposing the tail artery. Polyethylene catheter (PE50) filled with heparinized saline is then inserted into the tail artery and connected to blood pressure transducer system. After assuring absence of any air bubbles, 5-10 min of baseline systolic and diastolic blood pressure along with heart rate are recorded using LabChart Pro (AD Instruments).
FIG. 9 illustrates the effect of exemplary compounds on average heart rate in a rat in comparison with reference compounds isoprenaline and ICI 118,551. FIG. 10 illustrates the effect of exemplary compounds on blood pressure in a rat in comparison with reference compounds isoprenaline and ICI 118,551.

[4] = Microsomal stability assay, mouse; details: 0.1 uM
C57bl/6J mice = experiment: Neurogenesis, doublecortin-immunoreactive neuroblast counts in dentate gyrus; details: 0.3 mg/kg subcutaneous daily from 3.5 to 6.0 months of age

ADRB1, sequence (P08588 whole entry, the tested form may be a part): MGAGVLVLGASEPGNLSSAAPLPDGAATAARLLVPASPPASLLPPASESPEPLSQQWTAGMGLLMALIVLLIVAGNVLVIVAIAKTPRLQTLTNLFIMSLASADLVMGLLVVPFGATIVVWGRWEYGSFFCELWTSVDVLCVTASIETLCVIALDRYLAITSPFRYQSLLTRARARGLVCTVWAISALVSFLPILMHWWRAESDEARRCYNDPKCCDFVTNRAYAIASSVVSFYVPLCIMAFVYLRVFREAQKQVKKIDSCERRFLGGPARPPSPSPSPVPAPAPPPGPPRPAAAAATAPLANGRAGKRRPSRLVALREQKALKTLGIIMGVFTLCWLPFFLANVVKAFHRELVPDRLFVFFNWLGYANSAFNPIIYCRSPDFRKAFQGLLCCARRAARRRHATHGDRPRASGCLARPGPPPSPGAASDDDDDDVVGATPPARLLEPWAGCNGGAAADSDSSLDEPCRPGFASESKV
α1D adrenergic receptor, sequence (P25100 whole entry): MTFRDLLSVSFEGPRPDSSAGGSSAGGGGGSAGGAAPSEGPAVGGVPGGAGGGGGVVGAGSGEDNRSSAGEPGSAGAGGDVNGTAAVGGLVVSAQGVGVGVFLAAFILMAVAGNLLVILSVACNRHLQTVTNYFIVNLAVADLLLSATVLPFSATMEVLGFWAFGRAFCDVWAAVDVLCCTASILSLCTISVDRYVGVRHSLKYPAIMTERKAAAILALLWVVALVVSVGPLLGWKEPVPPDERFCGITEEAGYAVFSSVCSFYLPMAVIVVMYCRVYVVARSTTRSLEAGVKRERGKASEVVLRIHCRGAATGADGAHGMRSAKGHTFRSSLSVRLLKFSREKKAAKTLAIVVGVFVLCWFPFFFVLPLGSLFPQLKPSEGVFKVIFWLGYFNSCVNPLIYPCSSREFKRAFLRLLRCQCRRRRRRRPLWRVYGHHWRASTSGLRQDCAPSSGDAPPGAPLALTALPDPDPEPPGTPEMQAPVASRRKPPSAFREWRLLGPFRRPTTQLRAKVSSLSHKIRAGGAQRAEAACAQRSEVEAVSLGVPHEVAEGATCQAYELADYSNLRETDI
D3 dopaminergic receptor, sequence (P35462 whole entry): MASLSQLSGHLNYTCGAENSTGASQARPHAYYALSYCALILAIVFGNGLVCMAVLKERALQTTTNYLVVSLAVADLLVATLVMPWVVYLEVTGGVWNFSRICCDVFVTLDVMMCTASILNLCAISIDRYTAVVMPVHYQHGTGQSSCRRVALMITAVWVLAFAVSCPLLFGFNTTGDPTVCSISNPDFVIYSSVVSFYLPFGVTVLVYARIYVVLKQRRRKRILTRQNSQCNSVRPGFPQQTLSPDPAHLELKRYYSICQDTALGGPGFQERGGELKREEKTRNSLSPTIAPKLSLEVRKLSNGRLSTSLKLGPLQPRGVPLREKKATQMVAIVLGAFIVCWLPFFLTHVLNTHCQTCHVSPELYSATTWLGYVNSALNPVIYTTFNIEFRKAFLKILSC
α1A adrenergic receptor, sequence (P35348 whole entry): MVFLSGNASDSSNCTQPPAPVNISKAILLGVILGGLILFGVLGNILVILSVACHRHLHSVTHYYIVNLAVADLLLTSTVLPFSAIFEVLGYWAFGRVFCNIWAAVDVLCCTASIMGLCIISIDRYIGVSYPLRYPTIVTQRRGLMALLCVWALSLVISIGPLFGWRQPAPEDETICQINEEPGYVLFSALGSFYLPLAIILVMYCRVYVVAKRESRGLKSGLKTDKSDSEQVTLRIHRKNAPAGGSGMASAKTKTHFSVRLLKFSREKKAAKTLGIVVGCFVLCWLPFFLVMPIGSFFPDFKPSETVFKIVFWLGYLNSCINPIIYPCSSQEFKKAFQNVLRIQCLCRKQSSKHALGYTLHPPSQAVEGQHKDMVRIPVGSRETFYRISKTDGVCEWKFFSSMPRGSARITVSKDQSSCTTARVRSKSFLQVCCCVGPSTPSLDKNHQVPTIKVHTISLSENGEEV
5-HT1A, sequence (P08908 whole entry, species assumed): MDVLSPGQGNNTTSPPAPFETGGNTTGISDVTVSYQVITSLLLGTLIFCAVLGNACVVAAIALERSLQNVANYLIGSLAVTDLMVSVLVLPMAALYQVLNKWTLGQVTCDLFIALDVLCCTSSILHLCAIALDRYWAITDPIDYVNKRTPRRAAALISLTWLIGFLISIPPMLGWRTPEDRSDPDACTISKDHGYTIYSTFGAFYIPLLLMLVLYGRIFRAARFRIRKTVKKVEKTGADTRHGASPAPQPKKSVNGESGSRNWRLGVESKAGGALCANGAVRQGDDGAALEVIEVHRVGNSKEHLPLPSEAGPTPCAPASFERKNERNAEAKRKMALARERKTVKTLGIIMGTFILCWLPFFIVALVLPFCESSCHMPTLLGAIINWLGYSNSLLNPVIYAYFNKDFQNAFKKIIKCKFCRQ

SMILES	AUC(0-inf) ([2]; in vivo, ip) [ng·h/mL]	Cmax ([2]; in vivo, ip, Cmax) [ng/mL]	AUC(0-inf) ([2]; in vivo, iv) [ng·h/mL]	Cmax ([2]; in vivo, iv, Cmax) [ng/mL]	bioavailability ([2]; in vivo, po) [%]	effect on blood pressure [3]	effect on heart rate [3]	further results
COc1ccccc1OCCNC[C@H](O)COc1ccc(O)cc1 [Compound 43]	2160 ± 310	762 ± 67	1800 ± 256	4000 ± 1110	6	significant reduction	did not produce significant effects	β-arrestin pathway % Iso max (ADRB1; percent efficacy compared to the maximum response achieved with isoproterenol): 18.3%; EC50 (ADRB1; read-out: β-arrestin pathway ADRB1 EC50): 10 to 100 nM; affinity for opioid, histamine, and muscarinic acetylcholine receptors [1]: nominal affinity; affinity for 5-HT1A (5-HT1A): significant affinity; affinity for α1A adrenergic receptor (α1A adrenergic receptor): significant affinity; affinity for α1D adrenergic receptor (α1D adrenergic receptor): significant affinity; affinity for D3 dopaminergic receptor (D3 dopaminergic receptor): significant affinity; Cmax ([2]; in vivo, po, 10 mg/kg PO - Portal vein, read-out: Cmax): 946 ng/mL; Cmax ([2]; in vivo, po, 10 mg/kg PO - Systemic (jugular vein), read-out: Cmax): 116 ng/mL; time of maximum concentration in systemic plasma ([2]; 10 mg/kg IP): 90 min; clearance ([2]; 4 hour time-course PK study): cleared more slowly; compound remaining after 60 minutes in mouse liver microsomes [4]: 62.8%
O=C(NCCNCC(O)COc1ccc(O)cc1)N1CCOCC1 (stereo not shown) [Xamoterol, reference compound]	2830 ± 517	7440 ± 730	2450 ± 601	22200 ± 4030	1.7	significant reduction	did not produce significant effects	clearance ([2]; in vivo): cleared rapidly; neurogenesis (neuroblast counts in dentate gyrus) (C57bl/6J mice): increases neurogenesis
